Test results from patent US4049808A, “2-Phenyl ethyl morpholine compounds” (Imperial Chemical Industries Limited, priority 1974, dated 1977).

Columns and labels:
Oral LD50 in mice = conditions: mouse, in vivo
[1] = tested on: reserpine-induced hypothermia; test: Reversal of reserpine-induced hypothermia in mice (RHL test); format: in vivo; conditions: reserpine 2 mg./kg. s.c., T0 to T4 (4 hours)
Experimental: The reversal of reserpine-induced hypothermia, known as the RHL test, is carried out as follows:
Mice are kept in a constant temperature room maintained at 21 ± 1° C. Each member of groups of 4 mice is given reserpine (2 mg. of base per kg. bodyweight, given subcutaneously as the acetate). Seventeen hours later the oesophageal temperature (T0) of each mouse is recorded by means of an orally-inserted probe coupled to an electric thermometer which is calibrated in degrees Centrigrade and which can be read to 0.1° C. Immediately after the temperature measurement the mice are dosed orally with the test compound, or with imipramine, each mouse in a group of 4 being given the same substance, and the oesophageal temperatures are again recorded after 4 hours (T4). The compound under test is dosed at serial dilutions, e.g. 100, 30, 10, 3, 1, 0.3, 0.1 mg./kg. Imipramine is used as the control. […] At 1 mg./kg. it produces an average rise of 1.7° C. A test compound which at a certain does level gives a rise in temperature equal to or greater than that given by 1 mg./kg. of imipramine, dosed to a different set of mice on the same day, is adjudged "active" at that dose.

c1ccc(Oc2ccccc2CCC2CNCCO2)cc1 (stereo not drawn) [2-[β-(2-phenoxyphenyl)ethyl]morpholine]
LD50 (Oral LD50 in mice): 1000 mg/kg

CN(C)CCCN1c2ccccc2CCc2ccccc21 [imipramine]
average rise in the temperature of a reserpinised mouse ([1]; imipramine 1 mg./kg. oral): 1.7 °C
average rise in the temperature of a reserpinised mouse ([1]; imipramine 3 mg./kg. oral): 3 °C

Cc1ccccc1CCC1CNCCO1 (stereo not drawn) [2-[β-(2-methylphenyl)ethyl]morpholine]
LD50 (Oral LD50 in mice): 550 mg/kg
